Data reported in article PMC4575030 (PLoS ONE, 2015).
Where “and” joins values, the source holds several entries; their conditions need not be identical. Equal values may be shown once. Read-outs that look alike come from different tables or passages of the source.

Experiments:
[1] = In vitro plasma protein binding; type: in vitro ADME
rat Nav1.7 = rat Nav1.7 (Rattus norvegicus, UniProt O08562); experiment: PatchXpress automated electrophysiology on rat Nav1.7; type: cell-based; conditions: 20%-inactivated rat Nav1.7
[2] = test system: rat formalin model of pain; experiment: Formalin test (formalin-induced flinching); type: in vivo; conditions: for Decrease in formalin flinching: phase 2 (10 to 40 min), percent of vehicle; for Analgesic efficacy: rat formalin model, significant (p < 0.05) decrease in flinching at a dose without a reduction in open field movement that obviated the result; for Reduction in formalin flinching, result in words: rat formalin test
Description: Formalin-induced flinching was measured using the Automated Nociception Analyzer (ANA) (University Anesthesia Research & Development Group, La Jolla, CA). Rats were habituated to the ANA testing chambers for at least 30 minutes prior to the formalin injection. At test time, each rat was removed from the testing chamber and gently wrapped in a towel. 50 μL of 2.5% formalin solution was injected into the dorsal surface of the left hind paw with a 30 gauge needle. A small metal band was then affixed to the plantar side of the injected paw with one drop of super glue. The animal was then unwrapped from the towel, placed back in the testing chamber, and flinching behavior was scored for 40 minutes by the ANA software. While minimized, non-painful paw movement from the natural activity of an alert animal could be erroneously binned by the automated recording system as a nociceptive behavior. These behaviors are not subtracted from the flinching total. […] Total flinching behavior was used as the endpoint of the assay.

[3] = Terminal plasma and brain concentrations after behavioral testing; type: in vivo, rat; conditions: for Kp: brain and plasma, ratio of concentrations measured following the formalin test; for concentration at 160 min / Terminal plasma concentration: mean; for concentration at 160 min: n = 4; for Terminal plasma concentration: n = 8; for Effective [plasma]: mean terminal plasma concentration at the lowest effective dose in the rat formalin test
hNav1.7 = biological target: T1, hNav1.7 (Homo sapiens, UniProt Q15858); experiment: Manual whole cell patch clamp electrophysiology on HEK 293 cells stably expressing hNav1.7; type: cell-based
T1 construct: expressed in transfected cells; host or cells: HEK 293
Description: Except as indicated, recordings to determine potency of aminotriazines on Nav1.7 were made with manual electrophysiology. HEK 293 cells stably expressing hNav1.7 were voltage-clamped using the whole cell patch clamp configuration. Cells were plated onto 35 mm culture dishes 0–24 hours before recording, and tissue culture medium was exchanged for external solution containing (in mM) 140 NaCl, 5 KCl, 2 CaCl2, 1 MgCl2, 10 HEPES, 11 glucose, pH 7.4 with NaOH. Patch pipettes were pulled from borosilicate glass capillaries (1.2 mm outer diameter, World Precision Instruments, Sarasota, FL) with a P-97 pipette puller (Sutter Instruments, Novato, CA) and backfilled with internal solution containing (in mM) 62.5 CsCl, 75 CsF, 2.5 MgCl2, 5 EGTA, 10 HEPES, pH 7.25 with CsOH. Pipette resistances were between 1.5 and 2.0 MΩ. After formation of the whole-cell configuration, cells were lifted off the dish bottom with the patch pipette and positioned directly in front of a microarray of glass tubes (each tube internal diameter ~ 1 mm) with each tube containing continuously flowing control or test solution. A full current-voltage relation was recorded from each cell, and cells with poor space clamp as indicated by discontinuous I-V relation or by prolonged or nonexponential current kinetics were discarded. Solution switching was accomplished by moving the microarray with computer control via an RSC-160 rapid solution exchanger (Bio-Logic, Claix, France). Currents were recorded with an Axopatch 200B patch-clamp amplifier driven by pCLAMP software, filtered (4-pole Bessel) at 5 kHz during acquisition, and digitized at 20 kHz using pClamp9.2. Whole cell capacitance and series resistance were compensated at 0%- 80%, and reported voltages were uncorrected for liquid junction potentials. Recordings were made at room temperature. Concentration-response curves were taken by measuring inward Nav1.7 current every five to six seconds with a 10 ms to 20 ms depolarization to near the peak of the current-voltage relation, before and after steady-state inhibition by a given concentration of aminotriazine. For concentration response curves on partially inactivated channels, holding voltage was set to produce 20% fractional inactivation. […] Occasionally two compound concentrations were tested in parallel without resetting the voltage, if inhibition was rapid and the current level steady. […] Concentration response curves on non-inactivated channels generally were taken with multiple concentrations added in series without washoff of the previous concentration.

naïve rats = experiment: Open field activity (basic movement); type: in vivo, rat; conditions: formalin-naïve rats
Description: Basic movement was measured using the Photobeam Activity System Open Field (San Diego Instruments, San Diego, CA) equipped with 48 infrared photocell emitters and detectors. Photobeams used to measure vertical movement were positioned 14 cm above the test chamber floor. Each testing chamber was made of Plexiglas (41 x 41 x 36 cm) and was devoid of any bedding. At the beginning of the test session, each animal was placed in a separate testing chamber and the room lights were turned off. Basic movement was measured for 30 minutes.

[4] = 30 mg/kg p.o., listed as compound A
[5] = 60 mg/kg p.o., listed as compound A
[6] = IC50 (μM) 20%-inactivated, 20%-inactivated human Nav1.7, holding voltage set to produce 20% fractional inactivation
[7] = non-inactivated human Nav1.7, holding voltage -140 mV or occasionally -120 mV, peak concentration tested 10 μM, read-out: IC50 (μM) Non-inactivated
[8] = 10 mg/kg p.o., negative value = increase

T1 sequence (Q15858 whole entry): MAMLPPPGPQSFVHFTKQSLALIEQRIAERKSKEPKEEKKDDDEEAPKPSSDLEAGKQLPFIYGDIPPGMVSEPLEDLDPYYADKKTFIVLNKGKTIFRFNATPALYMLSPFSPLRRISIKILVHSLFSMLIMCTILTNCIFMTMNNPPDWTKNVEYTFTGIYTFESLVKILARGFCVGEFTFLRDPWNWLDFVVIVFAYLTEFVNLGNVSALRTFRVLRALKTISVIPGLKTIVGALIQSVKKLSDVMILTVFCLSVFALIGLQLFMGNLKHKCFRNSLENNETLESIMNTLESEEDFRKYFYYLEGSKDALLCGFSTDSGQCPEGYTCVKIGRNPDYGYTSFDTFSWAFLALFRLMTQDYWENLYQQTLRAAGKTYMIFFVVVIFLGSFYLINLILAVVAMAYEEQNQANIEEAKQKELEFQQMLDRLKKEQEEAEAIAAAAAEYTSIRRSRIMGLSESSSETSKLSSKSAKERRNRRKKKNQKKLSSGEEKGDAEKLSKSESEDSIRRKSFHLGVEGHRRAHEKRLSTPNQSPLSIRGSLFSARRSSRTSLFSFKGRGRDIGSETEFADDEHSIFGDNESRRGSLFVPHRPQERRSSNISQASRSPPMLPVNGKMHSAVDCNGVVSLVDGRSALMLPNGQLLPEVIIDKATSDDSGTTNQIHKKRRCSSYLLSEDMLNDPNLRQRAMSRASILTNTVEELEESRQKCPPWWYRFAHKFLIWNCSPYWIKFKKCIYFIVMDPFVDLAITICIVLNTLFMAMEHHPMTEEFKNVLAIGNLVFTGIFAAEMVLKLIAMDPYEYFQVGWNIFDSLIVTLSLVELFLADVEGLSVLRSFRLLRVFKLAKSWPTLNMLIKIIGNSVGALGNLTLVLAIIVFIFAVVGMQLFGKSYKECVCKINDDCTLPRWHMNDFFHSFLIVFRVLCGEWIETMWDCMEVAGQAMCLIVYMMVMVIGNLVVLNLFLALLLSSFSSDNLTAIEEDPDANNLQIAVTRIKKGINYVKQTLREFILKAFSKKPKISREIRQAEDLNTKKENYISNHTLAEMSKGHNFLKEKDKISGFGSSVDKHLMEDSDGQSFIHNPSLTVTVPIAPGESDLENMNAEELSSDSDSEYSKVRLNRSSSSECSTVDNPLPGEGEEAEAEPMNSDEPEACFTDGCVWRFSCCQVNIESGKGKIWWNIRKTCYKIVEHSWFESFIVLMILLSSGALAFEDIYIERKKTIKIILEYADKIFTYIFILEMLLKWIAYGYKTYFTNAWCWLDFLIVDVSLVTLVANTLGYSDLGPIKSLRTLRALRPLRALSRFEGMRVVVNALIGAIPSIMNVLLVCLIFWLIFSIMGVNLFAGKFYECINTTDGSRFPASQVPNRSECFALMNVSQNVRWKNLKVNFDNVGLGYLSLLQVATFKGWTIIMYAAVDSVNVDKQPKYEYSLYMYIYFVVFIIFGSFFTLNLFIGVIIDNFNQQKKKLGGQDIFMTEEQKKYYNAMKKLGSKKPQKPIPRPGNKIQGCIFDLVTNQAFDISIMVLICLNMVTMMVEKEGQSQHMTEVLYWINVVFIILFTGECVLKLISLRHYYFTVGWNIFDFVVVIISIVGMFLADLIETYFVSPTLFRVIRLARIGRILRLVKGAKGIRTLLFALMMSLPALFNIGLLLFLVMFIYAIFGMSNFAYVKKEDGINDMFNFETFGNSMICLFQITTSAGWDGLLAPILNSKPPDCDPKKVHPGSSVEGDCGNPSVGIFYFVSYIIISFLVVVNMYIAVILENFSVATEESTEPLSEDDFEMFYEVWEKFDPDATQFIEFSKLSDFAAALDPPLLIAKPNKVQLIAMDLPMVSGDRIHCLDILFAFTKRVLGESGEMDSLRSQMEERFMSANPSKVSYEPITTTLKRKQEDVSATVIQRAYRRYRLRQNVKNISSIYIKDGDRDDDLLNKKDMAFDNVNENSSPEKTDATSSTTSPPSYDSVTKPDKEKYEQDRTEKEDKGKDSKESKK
rat Nav1.7, sequence (O08562 whole entry): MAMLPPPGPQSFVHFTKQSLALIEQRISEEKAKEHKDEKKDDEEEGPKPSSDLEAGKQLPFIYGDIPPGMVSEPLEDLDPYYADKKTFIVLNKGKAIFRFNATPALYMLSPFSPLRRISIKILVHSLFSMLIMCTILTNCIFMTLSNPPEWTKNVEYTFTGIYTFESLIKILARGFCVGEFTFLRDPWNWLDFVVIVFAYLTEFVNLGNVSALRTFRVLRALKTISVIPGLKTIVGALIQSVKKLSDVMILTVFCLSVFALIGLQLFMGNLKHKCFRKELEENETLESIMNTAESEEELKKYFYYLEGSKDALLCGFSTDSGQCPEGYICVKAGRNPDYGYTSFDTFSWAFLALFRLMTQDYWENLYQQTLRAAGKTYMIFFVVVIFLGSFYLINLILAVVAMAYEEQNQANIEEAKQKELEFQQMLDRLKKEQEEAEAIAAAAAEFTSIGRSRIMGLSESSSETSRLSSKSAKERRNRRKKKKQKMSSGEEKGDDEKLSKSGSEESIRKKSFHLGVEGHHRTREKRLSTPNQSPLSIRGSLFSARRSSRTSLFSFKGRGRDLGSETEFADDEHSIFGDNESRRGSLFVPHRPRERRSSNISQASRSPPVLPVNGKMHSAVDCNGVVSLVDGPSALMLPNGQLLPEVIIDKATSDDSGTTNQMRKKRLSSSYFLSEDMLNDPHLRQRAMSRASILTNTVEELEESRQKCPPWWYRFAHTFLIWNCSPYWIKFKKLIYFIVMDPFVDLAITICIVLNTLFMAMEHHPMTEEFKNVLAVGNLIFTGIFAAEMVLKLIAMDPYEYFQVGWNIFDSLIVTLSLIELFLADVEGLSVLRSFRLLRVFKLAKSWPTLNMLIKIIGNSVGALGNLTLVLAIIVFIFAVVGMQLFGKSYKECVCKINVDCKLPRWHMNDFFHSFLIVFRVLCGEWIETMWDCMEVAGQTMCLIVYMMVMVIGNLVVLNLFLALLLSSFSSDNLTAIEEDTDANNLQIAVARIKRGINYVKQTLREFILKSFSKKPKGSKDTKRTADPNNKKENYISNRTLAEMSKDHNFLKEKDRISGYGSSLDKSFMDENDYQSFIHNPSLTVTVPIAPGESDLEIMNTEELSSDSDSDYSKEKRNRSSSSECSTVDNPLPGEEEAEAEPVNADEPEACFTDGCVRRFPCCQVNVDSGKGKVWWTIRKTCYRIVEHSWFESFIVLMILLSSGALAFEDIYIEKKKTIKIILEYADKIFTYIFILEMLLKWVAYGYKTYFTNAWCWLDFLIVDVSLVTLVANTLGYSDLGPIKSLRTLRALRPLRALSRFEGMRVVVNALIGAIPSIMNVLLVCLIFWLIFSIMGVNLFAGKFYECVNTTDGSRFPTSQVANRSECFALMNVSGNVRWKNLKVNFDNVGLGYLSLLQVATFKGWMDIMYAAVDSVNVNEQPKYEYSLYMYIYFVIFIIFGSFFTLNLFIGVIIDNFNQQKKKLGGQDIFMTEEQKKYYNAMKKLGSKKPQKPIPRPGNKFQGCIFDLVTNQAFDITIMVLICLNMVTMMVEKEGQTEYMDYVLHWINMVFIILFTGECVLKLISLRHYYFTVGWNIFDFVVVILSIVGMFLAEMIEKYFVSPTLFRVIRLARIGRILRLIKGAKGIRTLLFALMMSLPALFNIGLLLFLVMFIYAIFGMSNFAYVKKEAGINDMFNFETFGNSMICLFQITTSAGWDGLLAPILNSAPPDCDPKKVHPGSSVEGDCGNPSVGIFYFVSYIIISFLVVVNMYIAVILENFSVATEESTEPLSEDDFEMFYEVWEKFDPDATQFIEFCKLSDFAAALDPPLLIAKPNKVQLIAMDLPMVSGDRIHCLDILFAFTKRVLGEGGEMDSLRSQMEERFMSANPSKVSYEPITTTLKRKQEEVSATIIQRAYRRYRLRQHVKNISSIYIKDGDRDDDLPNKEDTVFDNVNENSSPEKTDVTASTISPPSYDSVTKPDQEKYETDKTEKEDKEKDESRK

Row | Structure (SMILES) | fraction unbound [1] | IC50 (rat Nav1.7) | Decrease in formalin flinching ([2]; 10 mg/kg p.o.) | Decrease in formalin flinching ([2]; 30 mg/kg p.o.) | Decrease in formalin flinching ([2]; 60 mg/kg p.o.) | Analgesic efficacy [2] | Kp ([3]; rat) | Effective [plasma] [3] | IC50 (hNav1.7; [6]) | IC50 (hNav1.7; [7]) | Decrease in basic movement (naïve rats; [8]) | Decrease in basic movement (naïve rats; 30 mg/kg p.o.) | Decrease in basic movement (naïve rats; 60 mg/kg p.o.) | Reduction in formalin flinching, result in words [2] | other results
1 | CC(=O)Nc1cccc(Nc2ncnc(N3CCC(Oc4ccc(Cl)cc4)CC3)n2)c1C [Compound A, N-(3-((4-(4-(4-chlorophenoxy)-1-piperidinyl)-1,3,5-triazin-2-yl)amino)-2-methylphenyl)acetamide] | 0.013 | 0.52 µM | 31.4% and 32% | 66.1% and 66% | 85% | Yes | 0.1 | 3.02 µM | 0.19 µM | > 10 µM | -4.2% | 13.5% and 14% | 46% |  | Decrease in formalin flinching ([2]; 10 mg/kg p.o., listed as compound A): 32%; Decrease in formalin flinching [2, 4]: 66%; Decrease in formalin flinching [2, 5]: 85% and 84.6%; concentration at 160 min ([3]; formalin test, 10 mg/kg p.o.): 0.28 µM; Terminal plasma concentration ([3]; formalin test, 10 mg/kg p.o.): 3.02 µM; concentration at 160 min ([3]; formalin test, 30 mg/kg p.o.): 0.88 µM; Terminal plasma concentration ([3]; formalin test, 30 mg/kg p.o.): 8.07 µM; Terminal plasma concentration ([3]; formalin test, 60 mg/kg p.o.): 13.5 µM; Terminal plasma concentration ([3]; open field test, 10 mg/kg p.o.): 2.75 µM; Terminal plasma concentration ([3]; open field test, 30 mg/kg p.o.): 5.53 µM; Terminal plasma concentration ([3]; open field test, 60 mg/kg p.o.): 13.0 µM; concentration at 160 min ([3]; rat, brain, po, formalin test, 60 mg/kg p.o.): 1.54 µM; Decrease in basic movement (naïve rats; [4]): 14%; Decrease in basic movement (naïve rats; [5]): 46%
2 | CC(=O)Nc1cccc(Nc2ncnc(N3CCC(Oc4ccc(Cl)c(C)c4)CC3)n2)c1C [Compound B, N-(3-((4-(4-(4-chloro-3-methylphenoxy)-1-piperidinyl)-1,3,5-triazin-2-yl)amino)-2-methylphenyl)acetamide] | 0.006 | 3.5 µM | 17% | 30% | 39% | Yes |  | 8.75 µM | 0.5 µM | > 10 µM |  | 5.6% | 19% | statistically significant and plasma concentration-dependent reduction in formalin flinching | 
3 | CC(=O)Nc1cccc(Nc2ncnc(N3CC(Oc4ccc(F)cc4)C3)n2)c1C [Compound C, N-(3-((4-(3-(4-fluorophenoxy)-1-azetidinyl)-1,3,5-triazin-2-yl)amino)-2-methylphenyl)acetamide] | 0.164 | 4.9 µM | 35% | 53% |  | Yes | 0.03 | 3.68 µM | 1.3 µM | > 10 µM | 8.5% | 23% |  | statistically significant and plasma concentration-dependent reduction in formalin flinching | Decrease in formalin flinching ([2]; 3 mg/kg p.o.): 14%; Decrease in basic movement (naïve rats; 3 mg/kg p.o.): 6.8%
4 | CC(=O)Nc1cccc(Nc2ncnc(N3CCC(OCc4ccc(F)c(F)c4)CC3)n2)c1C [Compound D, N-(3-((4-(4-((3,4-difluorobenzyl)oxy)-1-piperidinyl)-1,3,5-triazin-2-yl)amino)-2-methylphenyl)acetamide] | 0.067 | 1.7 µM | 36% | 62% | 83% | Yes | 0.19 | 1.27 µM | 0.6 µM | > 10 µM |  | 28% | 50% | statistically significant and plasma concentration-dependent reduction in formalin flinching | Increase in basic movement (in parentheses in the column Decrease in basic movement) (naïve rats; 10 mg/kg p.o., value in parentheses corresponds to a measured increase): (1.4%)
5 | CC(=O)Nc1cc(Nc2ncnc(N3CC=C(c4ccc(C#N)cc4)CC3)n2)ccc1F [Compound E, N-(5-((4-(4-(4-cyanophenyl)-3,6-dihydro-1(2H)-pyridinyl)-1,3,5-triazin-2-yl)amino)-2-fluorophenyl)acetamide] | 0.009 | 3.5 µM | 18% | 62% |  | Yes | 0.49 | 6.14 µM | 0.09 µM | 2.1 µM | 2% | 29% |  | statistically significant and plasma concentration-dependent reduction in formalin flinching | Decrease in formalin flinching ([2]; 100 mg/kg p.o.): 83%; Decrease in basic movement (naïve rats; 100 mg/kg p.o.): 29%
6 | CC(=O)Nc1cccc(Nc2ncnc(N3CCC(Oc4ccc(Cl)c(F)c4)CC3)n2)c1C [Compound G, N-(3-((4-(4-(4-chloro-3-fluorophenoxy)-1-piperidinyl)-1,3,5-triazin-2-yl)amino)-2-methylphenyl)acetamide] | 0.006 | 0.8 µM |  |  |  | No | 0.09 |  | 0.3 µM | 6.6 µM |  |  |  | did not achieve statistically significant reversals in formalin flinching | 
7 | CC(=O)Nc1cccc(Nc2ncnc(N3CCC(OCc4ccccc4)CC3)n2)c1 [Compound H, N-(3-((4-(4-(benzyloxy)-1-piperidinyl)-1,3,5-triazin-2-yl)amino)phenyl)acetamide] |  |  |  |  |  | No |  |  |  |  |  |  |  | did not achieve statistically significant reversals in formalin flinching | 
8 | CN1C(=O)CN=C(c2ccccc2)c2cc(Cl)ccc21 [Diazepam, diazepam, reference compound] |  |  |  |  |  |  |  |  |  |  |  |  |  |  | Reduction in formalin-induced flinching ([2]; diazepam 10 mg/kg, lowest dose with statistically significant reduction): 22%
